The target of this test is T1, Human BCL-XL protein (N-terminal HiBiT tagged BCL-XL expressed in HT1080 cells) (Homo sapiens, UniProt Q07817).
T1 construct: expressed in transfected cells; host or cells: HT-1080 (ATCC CCL-121), stably transduced with lentivirus pLV-UBC-N-HiBiT-BCL-XL-PGK-puro and selected with puromycin
Nature of the test: HiBiT Based Degradation Assay. The settings on record: 24 hours incubation; for DC50: BCL-XL degradation, HT1080 cells expressing N-HiBiT-BCL-XL, normalized with DMSO control, geometric mean for multiple data points, read-out: EC50 (24 h); for Ymin (24 h): bottom of BCL-XL degradation curve (remaining HiBiT-BCL-XL signal vs DMSO control), HT1080 cells. The test is classed as cell-based. The text has this:
HiBiT Based Degradation Assay
Human BCL-XL protein coding open reading frame fused with N-terminal HiBiT coding sequence (N-HiBiT-BCL-XL) was synthesized from Integrated DNA Technologies (IDT). Next, N-HiBiT-BCL-XL sequence was cloned into pLV-UBC-PGK-Puro, a lentivirus plasmid purchased from Vectorbuilder, to generate pLV-UBC-N-HiBiT-BCL-XL-PGK-puro. Lentiviral particles were generated from Lenti-X™ 293T cells (Clontech) by co-transfection of pLV-UBC-N-HiBiT-BCL-XL-PGK-puro plasmids and lentiviral packaging plasmid mix (Cellecta). HT-1080 [HT1080](ATCC CCL-121™) cells were infected with the lentivirus, and HT1080 cells stably integrated with the lentiviral vector were established by incubation with 1 μg/mL puromycin (Thermofisher). HT1080 cells expressing N-terminal HiBiT tagged BCL-XL were dispensed into 384-well plates pre-spotted with compounds at varying concentrations. Three thousand cells were seeded into each well in 40 μL of RPMI 1640 media. After 24 hours of incubation at 37° C. with 5% CO2, 30 μL of the NANO-GLO® HiBiT Lytic Detection System working solution (Promega) was added to each well and incubated at room temperature for 30 min. After incubation, luminescence was read on a PHERAstar FSX Plate Reader (BMG). BCL-XL degradation at each indicated concentration was normalized with DMSO control. The BCL-XL degradation curves were plotted using a four-parameter logistic model. For compounds displaying hook effects, curve fitting was performed using bottom point of hook curves (i.e., the point of Ymin) as bottom plateau to calculate EC50. For compounds with multiple data points, the geometric mean is presented.

T1 sequence (Q07817 whole entry): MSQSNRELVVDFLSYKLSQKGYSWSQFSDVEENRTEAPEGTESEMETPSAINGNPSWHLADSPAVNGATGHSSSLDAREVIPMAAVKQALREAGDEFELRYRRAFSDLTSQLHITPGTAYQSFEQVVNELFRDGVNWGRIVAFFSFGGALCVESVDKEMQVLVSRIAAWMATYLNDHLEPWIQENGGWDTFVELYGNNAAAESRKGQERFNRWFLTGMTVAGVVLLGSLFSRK

In the case of `Cc1c(OCCC2CC3(CCN(CC(=O)Nc4ccc5c(C6CCC(=O)NC6=O)nn(C)c5c4)CC3)C2)cccc1-c1ccc(N2CCc3cccc(C(=O)Nc4nc5ccccc5s4)c3C2)nc1C(=O)O` (stereo not drawn) [Compound 114, 6-(8-(benzo[d]thiazol-2-ylcarbamoyl)-3,4-dihydroisoquinolin-2(1H)-yl)-3-(3-(2-(7-(2-((3-(2,6-dioxopiperidin-3-yl)-1-methyl-1H-indazol-6-yl)amino)-2-oxoethyl)-7-azaspiro[3.5]nonan-2-yl)ethoxy)-2-methylphenyl)picolinic acid], the DC50 was 10 to 100 nM and the “Ymin (24 h)” value is “B (30% ≤ Ymin < 50%)”.

Turning to `Cc1cc(OCCC2CC3(CCN(CC(=O)Nc4ccc5c(C6CCC(=O)NC6=O)nn(C)c5c4)CC3)C2)ccc1-c1ccc(N2CCc3cccc(C(=O)Nc4nc5ccccc5s4)c3C2)nc1C(=O)O` (stereo not drawn) [Compound 115, 6-(8-(benzo[d]thiazol-2-ylcarbamoyl)-3,4-dihydroisoquinolin-2(1H)-yl)-3-(4-(2-(7-(2-((3-(2,6-dioxopiperidin-3-yl)-1-methyl-1H-indazol-6-yl)amino)-2-oxoethyl)-7-azaspiro[3.5]nonan-2-yl)ethoxy)-2-methylphenyl)picolinic acid], the DC50 lay within 10 to 100 nM and the “Ymin (24 h)” value is “B (30% ≤ Ymin < 50%)”.

For the molecule `Cc1cc(OCCCCC2CCN(CC(=O)Nc3ccc4c(C5CCC(=O)NC5=O)nn(C)c4c3)CC2)ccc1-c1ccc(N2CCc3cccc(C(=O)Nc4nc5ccccc5s4)c3C2)nc1C(=O)O` (stereo not drawn) [Compound 116, 6-[8-(1,3-benzothiazol-2-ylcarbamoyl)-3,4-dihydro-1H-isoquinolin-2-yl]-3-[4-[4-[1-[2-[[3-(2,6-dioxo-3-piperidyl)-1-methyl-indazol-6-yl]amino]-2-oxo-ethyl]-4-piperidyl]butoxy]-2-methyl-phenyl]pyridine-2-carboxylic acid], the DC50 is under 10 nM and the “Ymin (24 h)” value is on record as “B (30% ≤ Ymin < 50%)”.

With `Cc1c(OCC2CC3(CCN(CC(=O)Nc4ccc5c(C6CCC(=O)NC6=O)nn(C)c5c4C)CC3)C2)cccc1-c1ccc(N2CCc3cccc(C(=O)Nc4nc5ccccc5s4)c3C2)nc1C(=O)O` (stereo not drawn) [Compound 117], the DC50 is 10 to 100 nM and the “Ymin (24 h)” value is listed as “B (30% ≤ Ymin < 50%)”.

`Cc1cc2c(C3CCC(=O)NC3=O)nn(C)c2cc1NC(=O)CN1CCC2(CC1)CC(COc1cccc(-c3ccc(N4CCc5cccc(C(=O)Nc6nc7ccccc7s6)c5C4)nc3C(=O)O)c1C)C2` (stereo not drawn) [Compound 118]: the DC50 was in the range of 100 to 1000 nM and the “Ymin (24 h)” value was “B (30% ≤ Ymin < 50%)”.

Consider `Cc1c(OC2CCC3(CC2)CCN(CC(=O)Nc2ccc4c(C5CCC(=O)NC5=O)nn(C)c4c2)CC3)cccc1-c1ccc(N2CCc3cccc(C(=O)Nc4nc5ccccc5s4)c3C2)nc1C(=O)O` (stereo not drawn) [Compound 119], for which the DC50 was under 10 nM and the “Ymin (24 h)” value is “B (30% ≤ Ymin < 50%)”.

Consider `Cc1c(OCC2CC3(CCN(CC(=O)Nc4ccc5c(C6CCC(=O)NC6=O)nn(C)c5c4F)CC3)C2)cccc1-c1ccc(N2CCc3cccc(C(=O)Nc4nc5ccccc5s4)c3C2)nc1C(=O)O` (stereo not drawn) [Compound 120], for which the DC50 is 10 to 100 nM and the “Ymin (24 h)” value is “B (30% ≤ Ymin < 50%)”.

As to `Cc1c(OCC2CC3(CCN(CC(=O)Nc4cc5c(cc4F)c(C4CCC(=O)NC4=O)nn5C)CC3)C2)cccc1-c1ccc(N2CCc3cccc(C(=O)Nc4nc5ccccc5s4)c3C2)nc1C(=O)O` (stereo not drawn) [Compound 121], the DC50 lay within 10 to 100 nM and the “Ymin (24 h)” value is “B (30% ≤ Ymin < 50%)”.

`Cc1cc(OCC2CC3(CCN(CC(=O)Nc4ccc5c(C6CCC(=O)NC6=O)nn(C)c5c4F)CC3)C2)ccc1-c1ccc(N2CCc3cccc(C(=O)Nc4nc5ccccc5s4)c3C2)nc1C(=O)O` (stereo not drawn) [Compound 122, 6-(8-(benzo[d]thiazol-2-ylcarbamoyl)-3,4-dihydroisoquinolin-2(1H)-yl)-3-(4-((7-(2-((3-(2,6-dioxopiperidin-3-yl)-7-fluoro-1-methyl-1H-indazol-6-yl)amino)-2-oxoethyl)-7-azaspiro[3.5]nonan-2-yl)methoxy)-2-methylphenyl)picolinic acid]: the DC50 is 10 to 100 nM and the “Ymin (24 h)” value is reported as “B (30% ≤ Ymin < 50%)”.

For the molecule `Cc1cc(OCC2CC3(CCN(CC(=O)Nc4cc5c(cc4F)c(C4CCC(=O)NC4=O)nn5C)CC3)C2)ccc1-c1ccc(N2CCc3cccc(C(=O)Nc4nc5ccccc5s4)c3C2)nc1C(=O)O` (stereo not drawn) [Compound 123], the DC50 lay within 10 to 100 nM and the “Ymin (24 h)” value was “B (30% ≤ Ymin < 50%)”.

In the case of `Cc1cc(OCC2CC3(CCN(CC(=O)Nc4ccc5c(C6CCC(=O)NC6=O)nn(C)c5c4C)CC3)C2)ccc1-c1ccc(N2CCc3cccc(C(=O)Nc4nc5ccccc5s4)c3C2)nc1C(=O)O` (stereo not drawn) [Compound 124, 6-(8-(benzo[d]thiazol-2-ylcarbamoyl)-3,4-dihydroisoquinolin-2(1H)-yl)-3-(4-((7-(2-((3-(2,6-dioxopiperidin-3-yl)-1,7-dimethyl-1H-indazol-6-yl)amino)-2-oxoethyl)-7-azaspiro[3.5]nonan-2-yl)methoxy)-2-methylphenyl)picolinic acid], the DC50 is under 10 nM and the “Ymin (24 h)” value is on record as “B (30% ≤ Ymin < 50%)”.

On to `Cc1cc2c(C3CCC(=O)NC3=O)nn(C)c2cc1NC(=O)CN1CCC2(CC1)CC(COc1ccc(-c3ccc(N4CCc5cccc(C(=O)Nc6nc7ccccc7s6)c5C4)nc3C(=O)O)c(C)c1)C2` (stereo not drawn) [Compound 125], for which the DC50 lay in the range of 10 to 100 nM and the “Ymin (24 h)” value is “B (30% ≤ Ymin < 50%)”.

Take `COc1cc2c(C3CCC(=O)NC3=O)nn(C)c2cc1NC(=O)CN1CCC2(CC1)CC(COc1cccc(-c3ccc(N4CCc5cccc(C(=O)Nc6nc7ccccc7s6)c5C4)nc3C(=O)O)c1C)C2` (stereo not drawn) [Compound 126]: the DC50 fell in the range of 100 to 1000 nM and the “Ymin (24 h)” value is recorded as “C (50% ≤ Ymin < 70%)”.

In the case of `COc1c(NC(=O)CN2CCC3(CC2)CC(COc2cccc(-c4ccc(N5CCc6cccc(C(=O)Nc7nc8ccccc8s7)c6C5)nc4C(=O)O)c2C)C3)ccc2c(C3CCC(=O)NC3=O)nn(C)c12` (stereo not drawn) [Compound 127], the DC50 lay in the range of 10 to 100 nM and the “Ymin (24 h)” value is recorded as “A (Ymin < 30%)”.

As to `COc1c(NC(=O)CN2CCC3(CC2)CC(COc2ccc(-c4ccc(N5CCc6cccc(C(=O)Nc7nc8ccccc8s7)c6C5)nc4C(=O)O)c(C)c2)C3)ccc2c(C3CCC(=O)NC3=O)nn(C)c12` (stereo not drawn) [Compound 128, 6-(8-(benzo[d]thiazol-2-ylcarbamoyl)-3,4-dihydroisoquinolin-2(1H)-yl)-3-(4-((7-(2-((3-(2,6-dioxopiperidin-3-yl)-7-methoxy-1-methyl-1H-indazol-6-yl)amino)-2-oxoethyl)-7-azaspiro[3.5]nonan-2-yl)methoxy)-2-methylphenyl)picolinic acid], the DC50 was under 10 nM and the “Ymin (24 h)” value is given as “A (Ymin < 30%)”.

With `Cn1nc(C2CCC(=O)NC2=O)c2ccc(NC(=O)CN3CCC(CCCOc4ccc(-c5ccc(N6CCc7cccc(C(=O)Nc8nc9ccccc9s8)c7C6)nc5C(=O)O)c(C(F)(F)F)c4)CC3)cc21` (stereo not drawn) [Compound 129, 6-(8-(benzo[d]thiazol-2-ylcarbamoyl)-3,4-dihydroisoquinolin-2(1H)-yl)-3-(4-(3-(1-(2-((3-(2,6-dioxopiperidin-3-yl)-1-methyl-1H-indazol-6-yl)amino)-2-oxoethyl)piperidin-4-yl)propoxy)-2-(trifluoromethyl)phenyl)picolinic acid], the DC50 was under 10 nM and the “Ymin (24 h)” value is recorded as “B (30% ≤ Ymin < 50%)”.

As for `Cn1nc(C2CCC(=O)NC2=O)c2ccc(NC(=O)CN3CCC4(CC3)CC(COc3ccc(-c5ccc(N6CCc7cccc(C(=O)Nc8nc9ccccc9s8)c7C6)nc5C(=O)O)c(C(F)(F)F)c3)C4)cc21` (stereo not drawn) [Compound 131, 6-(8-(benzo[d]thiazol-2-ylcarbamoyl)-3,4-dihydroisoquinolin-2(1H)-yl)-3-(4-((7-(2-((3-(2,6-dioxopiperidin-3-yl)-1-methyl-1H-indazol-6-yl)amino)-2-oxoethyl)-7-azaspiro[3.5]nonan-2-yl)methoxy)-2-(trifluoromethyl)phenyl)picolinic acid], the DC50 is under 10 nM and the “Ymin (24 h)” value is on record as “B (30% ≤ Ymin < 50%)”.

Take `Cn1nc(C2CCC(=O)NC2=O)c2ccc(NC(=O)CN3CCC4(CC3)CC(COc3cccc(-c5ccc(N6CCc7cccc(C(=O)Nc8nc9ccccc9s8)c7C6)nc5C(=O)O)c3C(F)(F)F)C4)cc21` (stereo not drawn) [Compound 132, 6-(8-(benzo[d]thiazol-2-ylcarbamoyl)-3,4-dihydroisoquinolin-2(1H)-yl)-3-(3-((7-(2-((3-(2,6-dioxopiperidin-3-yl)-1-methyl-1H-indazol-6-yl)amino)-2-oxoethyl)-7-azaspiro[3.5]nonan-2-yl)methoxy)-2-(trifluoromethyl)phenyl)picolinic acid]: the DC50 was in the range of 10 to 100 nM and the “Ymin (24 h)” value is “B (30% ≤ Ymin < 50%)”.

Source of the values: US20260216170A1, “TETRAHYDROISOQUINOLINE HETEROBIFUNCTIONAL BCL-XL DEGRADERS” (Treeline Biosciences, Inc., priority 2023, published 2026).
